Test results: ChEMBL document CHEMBL1201862, “PubChem BioAssay data set” (2004)
Calls of active or inactive are those of the source.

Legend:
[1] = target: Cytochrome P450 2D6 (Homo sapiens, UniProt P10635);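 note: CYP2D6 member of a cytochrome P450 panel assay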
[2] = target: T1, Ubiquitin-conjugating enzyme E2 N (Homo sapiens, UniProt P61088); assay type: functional;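 note: Dose-response confirmation in a TR-FRET assay detecting UBC13-driven polyubiquitin chain formation, inhibition measured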
T1 sequence (P61088 whole entry): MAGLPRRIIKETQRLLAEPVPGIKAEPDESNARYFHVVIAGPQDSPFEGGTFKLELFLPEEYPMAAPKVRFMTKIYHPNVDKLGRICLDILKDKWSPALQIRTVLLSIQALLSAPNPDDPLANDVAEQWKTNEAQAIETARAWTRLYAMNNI

[3] = Luminescence Cell-Based Dose Response HTS to Identify Activators of Luciferase Translation or Activity in H4 […] Cells. [Related pubchem assays: 1829 (Project Summary), 1814 (Primary HTS)]; assay type: functional
[4] = tested on: H4; experiment: Luminescence Cell-Based Dose Response HTS to Identify Activators of 5'UTR Stem-Loop Driven Prion Protein mRNA Translation in H4 Neuroglioblastoma Cells. [Related pubchem assays: 1829 (Project Summary), 1814 (Primary HTS)]; assay type: functional; settings: Homo sapiens
[5] = tested on: INS1; experiment: beta cell apoptosis inhibitors, cytokine rescue, dose response, luminescence, retest (AID 449756); assay type: functional, cell-based; settings: Rattus norvegicus;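 note: cell death triggered by IL-1 beta plus TNF-alpha plus IFN-gamma mixture; protective hits raise ATP signal compared with cytokine alone wells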
[6] = target: T2, Heat shock factor protein 1 (Mus musculus, UniProt P38532); experiment: HSF1 potentiators in luciferase reporter cells, confirmation, cell-based, NIH3T3, luminescence, dose retest (AID 435004); assay type: functional;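 note: stress induced by proteasome inhibitor MG132 added 30 min after compound; luciferase reporter driven by HSF1 response element in NIH3T3 cells; actives raise luminescence as potentiators of the MG132 stress response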
T2 sequence (P38532 whole entry): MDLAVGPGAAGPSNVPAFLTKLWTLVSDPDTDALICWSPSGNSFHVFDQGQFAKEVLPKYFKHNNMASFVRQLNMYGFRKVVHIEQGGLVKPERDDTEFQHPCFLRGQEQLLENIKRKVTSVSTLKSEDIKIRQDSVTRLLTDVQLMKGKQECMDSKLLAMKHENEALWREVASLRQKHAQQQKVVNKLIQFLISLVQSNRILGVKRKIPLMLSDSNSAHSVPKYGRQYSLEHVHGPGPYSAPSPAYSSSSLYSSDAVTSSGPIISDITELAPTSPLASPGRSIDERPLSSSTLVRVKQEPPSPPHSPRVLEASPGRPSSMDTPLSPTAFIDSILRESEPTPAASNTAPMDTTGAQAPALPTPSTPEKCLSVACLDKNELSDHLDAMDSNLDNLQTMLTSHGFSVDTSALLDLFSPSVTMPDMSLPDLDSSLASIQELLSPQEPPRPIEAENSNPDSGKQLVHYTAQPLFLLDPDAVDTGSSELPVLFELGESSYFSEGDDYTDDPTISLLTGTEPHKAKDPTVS

[7] = target: T2, Heat shock factor protein 1; experiment: inhibition of MG132-induced HSE-luciferase signal, confirmation, cell-based, NIH3T3, luminescence, dose retest (AID 2382); assay type: functional;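 note: NIH3T3 fibroblasts with HSF1-driven luciferase reporter stressed by proteasome inhibitor MG132; luminescence from HSF1-driven luciferase expression after 8 hours of MG132 stress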
[8] = tested on: Streptococcus sp. 'group A'; experiment: growth inhibition of control SK(-) GAS strain, dose response, counter-screen for streptokinase expression inhibitor project, luminescence, kanamycin, BacTiterGlo, confirmation (AID 1900); assay type: functional, organism-based
[9] = target: T3, Streptokinase A (Streptococcus pyogenes serotype M1, UniProt P10520); experiment: S. pyogenes streptokinase expression inhibitors, potency, dose response, plasminogen activation absorbance, OD405 (AID 1914); assay type: functional, Streptococcus pyogenes M1 GAS;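 note: secreted streptokinase activity via plasminogen activation per viability signal from cell pellet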
T3 sequence (P10520 whole entry): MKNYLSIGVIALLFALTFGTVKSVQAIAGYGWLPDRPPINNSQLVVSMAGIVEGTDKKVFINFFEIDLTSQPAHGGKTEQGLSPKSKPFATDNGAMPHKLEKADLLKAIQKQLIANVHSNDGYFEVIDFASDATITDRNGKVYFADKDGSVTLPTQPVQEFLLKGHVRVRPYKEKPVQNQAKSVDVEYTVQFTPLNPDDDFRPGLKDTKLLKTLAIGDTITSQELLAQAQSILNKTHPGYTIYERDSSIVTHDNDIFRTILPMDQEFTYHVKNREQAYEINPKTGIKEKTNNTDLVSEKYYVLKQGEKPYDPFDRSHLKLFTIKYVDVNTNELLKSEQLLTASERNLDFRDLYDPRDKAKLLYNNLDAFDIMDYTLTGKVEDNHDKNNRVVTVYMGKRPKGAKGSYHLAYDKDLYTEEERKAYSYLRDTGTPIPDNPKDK

[10] = Luminescence Cell-Based Dose Retest to Confirm Inhibitors of Cancer Stem Cells. [Related pubchem assays (depositor defined):AID2717, AID2721]; assay type: functional; settings: Homo sapiens
[11] = tested on: Streptococcus; experiment: Group A Streptococcus viability loss, dose response, counter-screen for streptokinase expression inhibitor project, luminescence, BacTiterGlo (AID 1915); assay type: functional, organism-based;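 note: potency for reduction of bacterial viability or growth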
[12] = target: T4, Rac GTPase-activating protein 1 (Homo sapiens, UniProt Q9H0H5); experiment: MgcRacGAP GTPase-activating activity inhibitors, confirmation, biochemical, ADP Hunter fluorescence, primary and confirmatory (AID 624330); assay type: functional
T4 sequence (Q9H0H5 whole entry): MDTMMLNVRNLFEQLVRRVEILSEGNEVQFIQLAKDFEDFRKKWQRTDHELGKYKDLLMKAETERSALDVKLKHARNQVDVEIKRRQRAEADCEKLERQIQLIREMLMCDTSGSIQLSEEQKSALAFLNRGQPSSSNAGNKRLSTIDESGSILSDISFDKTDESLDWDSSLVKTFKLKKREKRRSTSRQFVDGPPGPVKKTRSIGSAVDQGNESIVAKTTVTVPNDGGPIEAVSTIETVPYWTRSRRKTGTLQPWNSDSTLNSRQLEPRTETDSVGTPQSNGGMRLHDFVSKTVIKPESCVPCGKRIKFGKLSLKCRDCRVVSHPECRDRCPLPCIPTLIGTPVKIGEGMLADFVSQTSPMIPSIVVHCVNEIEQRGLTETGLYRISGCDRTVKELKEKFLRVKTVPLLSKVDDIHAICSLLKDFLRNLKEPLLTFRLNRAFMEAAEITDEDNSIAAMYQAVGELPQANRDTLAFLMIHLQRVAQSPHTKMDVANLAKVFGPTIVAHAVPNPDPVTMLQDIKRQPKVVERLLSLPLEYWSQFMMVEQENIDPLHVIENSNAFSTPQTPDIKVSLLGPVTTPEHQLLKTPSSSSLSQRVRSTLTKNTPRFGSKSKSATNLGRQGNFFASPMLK

[13] = target: Cytochrome P450 3A4 (Homo sapiens, UniProt P08684);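 note: CYP3A4 tested as one member of a cytochrome P450 panel screen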
Sequence of Cytochrome P450 3A4 (P08684 whole entry): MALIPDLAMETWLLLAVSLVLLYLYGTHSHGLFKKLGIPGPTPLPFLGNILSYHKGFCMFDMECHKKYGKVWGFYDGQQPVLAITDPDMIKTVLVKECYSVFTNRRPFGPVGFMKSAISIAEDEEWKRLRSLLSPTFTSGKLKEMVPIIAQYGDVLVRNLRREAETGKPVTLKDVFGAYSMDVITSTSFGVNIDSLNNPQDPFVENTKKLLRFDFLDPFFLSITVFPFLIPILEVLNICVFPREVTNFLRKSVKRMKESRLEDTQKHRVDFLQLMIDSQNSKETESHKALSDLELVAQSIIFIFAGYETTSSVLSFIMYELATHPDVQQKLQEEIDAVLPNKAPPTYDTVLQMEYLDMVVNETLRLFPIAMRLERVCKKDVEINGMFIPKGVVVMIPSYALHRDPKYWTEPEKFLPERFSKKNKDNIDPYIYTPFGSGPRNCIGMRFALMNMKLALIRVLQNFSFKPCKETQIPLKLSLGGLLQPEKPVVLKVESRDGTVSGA

[14] = cytotoxicity toward NIH3T3 fibroblasts, dose response, counter-screen, cell-based, ATP luminescence, mouse fibroblasts (AID 2010); assay type: functional; settings: NIH3T3;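 note: cells exposed to compound for about 90 hours before reading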
[15] = inhibitors of intracellular T. cruzi replication, confirmation, NIH3T3 host cells, beta-gal luminescence (AID 2044); assay type: functional, cell-based;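 note: intracellular parasites grown in NIH/3T3 mouse fibroblasts as host cells; luminescent beta-galactosidase reporter signal from transgenic T. cruzi replicating inside host cells; inhibitors lower the luminescence signal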
[16] = target: Cytochrome P450 2C19 (Homo sapiens, UniProt P33261); experiment: Cytochrome panel assay with activity outcomes. Panel member name: p450-cyp2c19 Compounds with AC50 equal or less than 10 uM are considered active; assay type: functional; settings: read-out: AC50
Sequence of Cytochrome P450 2C19 (P33261 whole entry): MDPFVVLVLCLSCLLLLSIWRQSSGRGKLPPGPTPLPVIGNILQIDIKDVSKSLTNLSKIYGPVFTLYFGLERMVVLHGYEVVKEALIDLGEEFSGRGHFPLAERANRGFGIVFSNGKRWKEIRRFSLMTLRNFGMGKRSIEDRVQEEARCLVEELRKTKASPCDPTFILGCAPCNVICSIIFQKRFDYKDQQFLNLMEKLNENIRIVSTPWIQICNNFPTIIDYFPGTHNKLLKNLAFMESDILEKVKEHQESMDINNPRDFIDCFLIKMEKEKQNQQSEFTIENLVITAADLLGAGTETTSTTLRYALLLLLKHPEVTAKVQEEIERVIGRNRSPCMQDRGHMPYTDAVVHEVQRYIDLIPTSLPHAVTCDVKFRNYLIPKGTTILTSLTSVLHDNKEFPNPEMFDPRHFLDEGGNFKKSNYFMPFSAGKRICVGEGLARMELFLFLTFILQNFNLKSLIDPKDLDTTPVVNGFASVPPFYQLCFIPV

[17] = target: Cytochrome P450 2C9 (Homo sapiens, UniProt P11712)
Sequence of Cytochrome P450 2C9 (P11712 whole entry): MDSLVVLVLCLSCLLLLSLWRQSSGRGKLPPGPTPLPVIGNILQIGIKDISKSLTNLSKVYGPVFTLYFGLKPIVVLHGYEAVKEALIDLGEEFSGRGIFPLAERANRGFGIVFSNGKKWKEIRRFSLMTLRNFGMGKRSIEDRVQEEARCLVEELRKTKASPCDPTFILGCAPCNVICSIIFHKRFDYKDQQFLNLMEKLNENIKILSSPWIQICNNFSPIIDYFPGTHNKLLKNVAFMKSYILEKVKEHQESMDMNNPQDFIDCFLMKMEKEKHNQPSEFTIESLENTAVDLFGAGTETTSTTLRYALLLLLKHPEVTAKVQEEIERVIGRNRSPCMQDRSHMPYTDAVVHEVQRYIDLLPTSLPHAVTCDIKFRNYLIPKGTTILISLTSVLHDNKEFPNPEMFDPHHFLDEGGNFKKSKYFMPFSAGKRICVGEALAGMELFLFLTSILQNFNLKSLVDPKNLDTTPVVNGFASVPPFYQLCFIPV

[18] = target: Paired box protein Pax-8 (Homo sapiens, UniProt Q06710); experiment: inhibitors of PAX8-driven TPO luciferase reporter, dose response, RMG-I cells, cherry-pick (AID 687027); assay type: functional, cell-based;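 note: luciferase reporter driven by Pax8 target thyroperoxidase promoter measured by SteadyGlo luminescence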
Sequence of Paired box protein Pax-8 (Q06710 whole entry): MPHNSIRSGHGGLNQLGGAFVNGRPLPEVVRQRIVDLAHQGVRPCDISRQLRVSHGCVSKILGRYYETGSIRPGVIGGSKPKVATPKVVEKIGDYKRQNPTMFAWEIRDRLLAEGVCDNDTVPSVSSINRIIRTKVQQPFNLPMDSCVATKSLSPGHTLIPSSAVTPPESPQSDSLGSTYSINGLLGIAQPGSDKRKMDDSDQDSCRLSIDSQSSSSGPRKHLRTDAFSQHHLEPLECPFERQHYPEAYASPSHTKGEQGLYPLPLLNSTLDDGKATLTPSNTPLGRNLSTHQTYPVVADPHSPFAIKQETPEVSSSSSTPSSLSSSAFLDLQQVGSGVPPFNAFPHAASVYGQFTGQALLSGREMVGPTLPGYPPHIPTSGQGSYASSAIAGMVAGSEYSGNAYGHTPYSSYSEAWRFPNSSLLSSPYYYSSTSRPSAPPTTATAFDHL

Sequence of Cytochrome P450 2D6 (P10635 whole entry): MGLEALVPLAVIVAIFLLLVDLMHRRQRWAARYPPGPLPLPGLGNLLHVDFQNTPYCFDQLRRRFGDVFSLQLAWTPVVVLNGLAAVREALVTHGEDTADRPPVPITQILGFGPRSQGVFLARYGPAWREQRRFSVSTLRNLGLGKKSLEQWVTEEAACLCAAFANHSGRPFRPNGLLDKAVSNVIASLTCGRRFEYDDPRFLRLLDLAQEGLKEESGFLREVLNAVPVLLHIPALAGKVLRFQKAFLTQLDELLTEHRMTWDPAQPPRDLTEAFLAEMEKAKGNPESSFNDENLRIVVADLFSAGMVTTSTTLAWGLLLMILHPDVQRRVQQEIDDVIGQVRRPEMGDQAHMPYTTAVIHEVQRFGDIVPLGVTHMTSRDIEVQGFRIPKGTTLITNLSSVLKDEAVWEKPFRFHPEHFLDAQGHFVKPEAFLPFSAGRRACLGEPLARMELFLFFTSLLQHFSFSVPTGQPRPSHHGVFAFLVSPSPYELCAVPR

COCCn1c(=O)c(-c2ccc(Cl)cc2)nc2cnc(N(C)C)nc21
AC50 [1]: 0.0794 µM (inconclusive)

CCOC(=O)N1CCc2c(sc(NC(=O)CN(CC)CC)c2C#N)C1
IC50 [2]: > 20 µM (inactive)

Cc1cc(C(=O)CSc2nnnn2C)c(C)n1Cc1ccco1
EC50 [3]: 5.73 µM (active) | EC50 [4]: > 120 µM (not active)

CCc1ccc(C2CC(c3cccc(Cl)c3)n3nc(N)nc3N2)cc1 (centres undefined)
AC50 [5]: > 120 µM (inactive)

COc1cccc(-c2nc(N3CCN(c4ccccc4)CC3)c3ccccc3n2)c1O
EC50 [6]: > 260 µM (inactive)

CCCCOC(=O)CCCc1ccc([N+](=O)[O-])cc1[N+](=O)[O-]
EC50 [6]: > 260 µM (inactive)

Cc1onc(-c2ccccc2)c1C(=O)N=C(N)c1ccc(C(F)(F)F)cc1
EC50 [6]: > 260 µM (inactive)

O=C(OCc1ccccc1F)c1ccc2c(c1)OCCO2
EC50 [3]: 1.38 µM (active) | EC50 [4]: 5.23 µM (active)

Cc1c(C)n(Cc2ccccc2)c2ncnc(N)c12
IC50 [2]: > 20 µM (inactive)

CCC(CC)c1nc(C#N)c(NCc2ccccc2)o1
EC50 [7]: 107 µM (active)

CCCSc1nsc(NC(=O)C(c2ccccc2)c2ccccc2)n1
EC50 [8]: 2.73 µM (active) | EC50 [9]: 11.3 µM (active) | AC50 [10]: 2.87 µM (active) | EC50 [11]: 6.12 µM (active)

Cc1noc(-c2ccc(C(F)(F)F)cc2)c1NC(=O)Nc1ccc(Cl)cc1
AC50 [5]: 6.96 µM (active)

N#CC1=C(S)N(c2ccccc2)C(c2ccc(-c3cccc(Cl)c3)o2)NC1=O (centres undefined)
IC50 [12]: 181 µM (active)

COc1ccc(C2Nc3ccccc3C(=O)N2c2ccc(C)cc2)cc1Cn1nnc2ccccc21 (centres undefined)
EC50 [3]: 4.2 µM (active) | EC50 [4]: 50.7 µM (active)

Cc1ccc(NC(=O)CN2CCN(C)CC2)cc1Br
IC50 [12]: 98.5 µM (active)

COc1ccc2[nH]cc(CCNc3cc(-c4cccnc4)ncn3)c2c1
AC50 [1]: 20 µM (inconclusive)

COCCCn1c(C(=O)NC2CCCCC2C)cc2c(=O)n3cccc(C)c3nc21 (centres undefined)
EC50 [6]: > 260 µM (inactive)

O=C1CC(Nc2ccccc2)=NN1c1ccccc1
AC50 [13]: 28.2 µM (inconclusive) | AC50 [10]: 3.96 µM (active)

CCCCCCc1cc2cc(C(=O)Nc3ccccc3)c(=O)oc2cc1O
AC50 [5]: 3.15 µM (active) | AC50 [10]: 0.257 µM (active)

CN(Cc1nnc(-c2ccc(F)cc2)o1)c1ccccc1
EC50 [6]: > 260 µM (inactive)

CC(C)Cn1c(SCc2nc(O)c3ccccc3n2)nc2ccccc2c1=O
AC50 [1]: 3.98 µM (inconclusive)

Cc1ccc(NC(=S)NNC(=O)c2nnn(-c3ccccc3)c2C)cc1
IC50 [2]: > 20 µM (inactive)

COc1ccccc1N1CCN(Cc2cccc(OC)c2O)CC1
EC50 [6]: > 260 µM (inactive)

COc1cccc(-c2nn(-c3ccccc3)cc2C(=O)n2nnc3ccccc32)c1
EC50 [6]: 4.15 µM (active)

CC1(C)CC2=Nc3cc4c(cc3C(c3ccc5c(c3)OCO5)C2=C(O)C1)OCO4 (centres undefined)
EC50 [6]: 72 µM (active)

CCCNCC1C(Oc2ccc(Cl)cc2Cl)C(=O)N1c1cccc(C)c1C (centres undefined)
EC50 [14]: > 60 µM (not active) | EC50 [15]: 3.52 µM (active) | AC50 [10]: 5.78 µM (active)

Cc1[nH]c2ccccc2c1/C=C(\C#N)C(=O)NCC1CCCO1 (centres undefined)
EC50 [6]: 53.1 µM (active)

c1ccc(CN2CCN(CCOCCOc3ccc4c(c3)CCC4)CC2)cc1
IC50 [12]: 53.6 µM (active)

COC(=O)[C@@]1(Cc2ccc(OC)cc2)[C@H]2c3cc(C(=O)N(C)C)n(CCc4c[nH]c5ccc(O)cc45)c3C[C@H]2CN1C(=O)c1ccccc1
AC50 [16]: 25.1 µM (inconclusive) | AC50 [1]: 15.8 µM (inconclusive)

O=C(Nc1cccc(O)c1)c1cc(-c2ccccc2Cl)on1
EC50 [7]: > 195 µM (not active)

COc1ccc(NC(=O)c2[nH]cnc2C(=O)NCc2ccccc2)cc1
IC50 [2]: > 20 µM (inactive)

Cc1nn(Cc2ccc(Cl)cc2)c(C)c1NC(=O)c1cc(-c2ccc3c(c2)OCO3)on1
EC50 [14]: 3.87 µM (active) | EC50 [15]: 1.99 µM (active) | AC50 [10]: 0.486 µM (active)

O=C(NCCc1ccccc1)c1noc2c1CCc1ccccc1-2
AC50 [17]: 7.08 µM (inconclusive) | AC50 [1]: 2.51 µM (inconclusive)

Sc1nnc2ccccn12
IC50 [12]: 34 µM (active)

COC(=O)[C@@H](Cc1ccccc1)N(Cc1ccccc1)S(=O)(=O)N(Cc1ccccc1)[C@H](Cc1ccccc1)C(=O)OC
AC50 [5]: 3.91 µM (active)

CCOC(=O)c1c(S(=O)(=O)NCC2CCN(CCc3cccs3)CC2)c(C)n(C)c1C
EC50 [6]: > 260 µM (inactive)

CCC1(c2ccccc2)NC(=O)N(CC(=O)NCc2ccccc2OC)C1=O (centres undefined)
EC50 [6]: > 260 µM (inactive)

CSc1ccccc1NC(=O)CN(C)C(C)C(=O)NCc1ccc2c(c1)OCO2 (centres undefined)
IC50 [12]: 46.7 µM (active)

COC(=O)N1C(c2ccccc2)C1c1ccccc1 (centres undefined)
EC50 [6]: > 260 µM (inactive)

CSCCC(NC(=O)c1ccccc1Br)C(=O)NNC(=O)c1csc(N2CCOCC2)n1 (centres undefined)
IC50 [2]: > 20 µM (inactive)

COc1cc(OC)cc(-c2sc3ccc(OC)cc3c2-c2ccc(O)cc2)c1
AC50 [10]: 2.46 µM (active)

NC(=O)c1ccccc1OC1CCC1
AC50 [5]: > 260 µM (inactive)

O=C(N/N=C/c1cc(Br)c(O)c(Br)c1O)c1ccc2c(c1)OCCO2
AC50 [5]: 3.1 µM (active)

O=C(N/N=C/c1ccc(O)cc1)c1[nH]c2ccc(Br)cc2c1-c1ccccc1
EC50 [7]: 11.4 µM (active) | AC50 [18]: 4.43 µM (active)

COc1cc(/C=N/Nc2ccccn2)cc(OC)c1O
IC50 [12]: 35 µM (active)

CCOc1cc(/C=N/NC(=O)C(=O)N2CCCC2)ccc1O
IC50 [12]: 56.3 µM (active)

CC(=O)c1cccc(/N=C/c2c(O)oc3ccccc3c2=O)c1
EC50 [6]: 2.8 µM (active)

CCCCCCCCCCS(=O)(=O)N/N=C/c1ccc([N+](=O)[O-])cc1
AC50 [10]: 8.29 µM (active)

Cc1cc(NC(=O)c2sc3ccccc3c2O)no1
IC50 [12]: 75.2 µM (active)
